Results from PubChem BioAssay (NCI).
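Cultured in 96-well plates, cells were exposed to test compound for 48 hours across five concentrations. Abbreviation: GI50, concentration required for 50% inhibition of growth. TGI denotes the concentration required for complete inhibition of growth.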

Assays:
Assay in all cases: NCI-60 cell line screen, 48 h
DU-145 prostate = test system: DU-145 prostate
HS 578T breast = test system: HS 578T breast
KM12 colon = test system: KM12 colon
NCI-H226 lung = test system: NCI-H226 lung
NCI/ADR-RES ovarian = test system: NCI/ADR-RES ovarian
SK-MEL-2 melanoma = test system: SK-MEL-2 melanoma
SK-OV-3 ovarian = test system: SK-OV-3 ovarian
UACC-257 melanoma = test system: UACC-257 melanoma

Compound	GI50 (DU-145 prostate) [µM]	TGI (DU-145 prostate) [µM]	GI50 (HS 578T breast) [µM]	TGI (HS 578T breast) [µM]	GI50 (KM12 colon) [µM]	TGI (KM12 colon) [µM]	GI50 (NCI-H226 lung) [µM]	TGI (NCI-H226 lung) [µM]	GI50 (NCI/ADR-RES ovarian) [µM]	TGI (NCI/ADR-RES ovarian) [µM]	GI50 (SK-MEL-2 melanoma) [µM]	TGI (SK-MEL-2 melanoma) [µM]	GI50 (SK-OV-3 ovarian) [µM]	TGI (SK-OV-3 ovarian) [µM]	GI50 (UACC-257 melanoma) [µM]	TGI (UACC-257 melanoma) [µM]
Cc1nccc2c3ccc(OCc4cn(-c5ccc(Cl)cc5)nn4)cc3n(CCCc3ccccc3)c12	4.33	> 33.3	0.844	2.48	6.21	> 33.3	1.72	9.12	0.644	1.72	> 33.3	> 33.3	> 33.3	> 33.3	4.58	13.4
CC(C)CC(=O)Nc1n[nH]c2c1CN(C(=O)C1CCN(C)CC1)C2(C)C	1.6	> 10	0.712	> 10	0.72	> 10	1.48	> 10	> 10	> 10	0.524	2.8	2.53	> 10	1.19	> 10
CCN(CC)CCCC(C)Nc1nc(C)cc(Nc2ccc3nc(C)cc(N)c3c2)n1 (centres undefined)	42.4	> 100	24.6	65.1	19.3	40.1	> 100	> 100	> 100	> 100	56.6	> 100	> 100	> 100	36.4	> 100
N#CC(C#N)N=Nc1ccc(Br)cc1	4.02	> 51.1	13.4	> 73.8	9.65	> 100	4.63	27	4.73	> 100	8.97	36.1	22.3	> 100	2.12	7.54
Cc1nc([C@H]2CC[C@H]3[C@@H]4CCC5=CC(=O)CC[C@]5(C)[C@H]4CC[C@]23C)cs1	> 100	> 100	> 66.1	> 100	4.72	> 100	31.7	> 100	3.63	> 100	> 100	> 100	> 100	> 100	3.31	> 100
COc1ccc(-c2nc(C(=O)c3ccccc3)n(CC(=O)c3ccccc3)c2-c2ccc(OC)cc2)cc1	> 100	> 100	> 100	> 100	> 100	> 100	> 100	> 100	> 100	> 100	> 100	> 100	> 100	> 100	> 100	> 100
Fc1ccc(-c2ncn(C3CCNCC3)c2-c2ccnc(Oc3ccc(F)c(F)c3)n2)cc1	8.78	> 16.7	9.58	> 18.4	6.71	> 16.2	9.34	> 25	8.83	> 25	6.84	14.5	7.54	> 16.4	4.76	9.15
OC(COc1ccc(F)cc1)Cn1cnc2c(Cl)ncnc21 (centres undefined)	> 100	> 100	37.9	> 100	> 100	> 100	> 100	> 100	> 100	> 100	> 100	> 100	> 100	> 100	46.8	> 100
Clc1ccc(C2=Nn3c(nnc3-c3cc(Cl)cc(Cl)c3Cl)SC2)cc1	34.2	> 100	16.5	71.3	9.15	> 100	51.9	> 100	16.6	> 100	41.7	> 100	17.6	44.5	33.2	> 100
COC(=O)NC1(NC(=O)OC)NC(=O)c2cc(OC)c(OC)c(OC)c2N1	–	> 100	–	67.7	–	> 100	–	> 100	–	56.6	–	8.85	–	> 100	–	> 100
COC(=O)Nc1nc2ccc(C(=O)c3ccc(N(C)C4COC4)cc3)cc2[nH]1	0.392	> 100	0.358	> 100	0.36	> 100	1.99	> 100	0.362	> 100	0.593	> 100	0.536	> 100	> 100	> 100
CS(=O)(=O)CCNCc1ccc(-c2ccc3ncnc(Nc4ccc(OCc5cccc(F)c5)c(C(F)(F)F)c4)c3c2)o1	3.91	8.07	3.88	13.5	4.06	7.63	3.44	6.75	5.54	20.7	4.51	8.96	3.61	9.86	3.86	7.68
CN1C(=O)[C@@H](NC(=O)[C@H](CCC(F)(F)F)[C@H](CCC(F)(F)F)C(N)=O)N=C(c2ccccc2)c2ccccc21	> 100	> 100	> 100	> 100	> 100	> 100	> 100	> 100	> 100	> 100	> 100	> 100	> 100	> 100	67.7	> 100
CCN1C2=NCCN2S(=O)(=O)c2ccccc21	–	> 100	–	> 100	–	> 100	–	> 100	–	> 100	–	> 100	–	> 100	–	> 100
COC(=O)c1c(O)c([N+](=O)[O-])cc2c1c1c(n2Cc2ccccc2)C(=O)c2ccccc2C1=O	14.3	27.6	29.9	92.4	21.5	78.5	26.4	62.9	21.1	68.5	27.2	> 100	> 100	> 100	41	> 100
